Results taken from PubChem BioAssay (NCI).
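Abbreviation: GI50, concentration required for 50% inhibition of growth. At the TGI there is no net growth.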

How the values were obtained:
Assay in all cases: NCI-60 cell line screen, 384-well format
UACC-62 melanoma = tested on: UACC-62 melanoma
SNB-75 CNS = tested on: SNB-75 CNS
K-562 leukemia = tested on: K-562 leukemia
MOLT-4 leukemia = tested on: MOLT-4 leukemia
NCI-H226 lung = tested on: NCI-H226 lung
786-0 renal = tested on: 786-0 renal
A498 renal = tested on: A498 renal
HCT-15 colon = tested on: HCT-15 colon
ACHN renal = tested on: ACHN renal
HOP-92 NSCLC = tested on: HOP-92 NSCLC
SN12C renal = tested on: SN12C renal
NCI-H322M lung = tested on: NCI-H322M lung
MDA-MB-468 breast = tested on: MDA-MB-468 breast
M14 melanoma = tested on: M14 melanoma
UACC-257 melanoma = tested on: UACC-257 melanoma
SNB-19 CNS = tested on: SNB-19 CNS
DU-145 prostate = tested on: DU-145 prostate
CAKI-1 renal = tested on: CAKI-1 renal
HOP-62 NSCLC = tested on: HOP-62 NSCLC
HCT-116 colon = tested on: HCT-116 colon
SF-295 CNS = tested on: SF-295 CNS
PC-3 prostate = tested on: PC-3 prostate
UO-31 renal = tested on: UO-31 renal
NCI-H460 NSCLC = tested on: NCI-H460 NSCLC
T-47D breast = tested on: T-47D breast
SK-OV-3 ovarian = tested on: SK-OV-3 ovarian
MDA-MB-435 melanoma = tested on: MDA-MB-435 melanoma
MDA-MB-231 breast = tested on: MDA-MB-231 breast
OVCAR-5 ovarian = tested on: OVCAR-5 ovarian
HCC-2998 colon = tested on: HCC-2998 colon
SF-268 CNS = tested on: SF-268 CNS
NCI-H23 lung = tested on: NCI-H23 lung
NCI/ADR-RES ovarian = tested on: NCI/ADR-RES ovarian
MALME-3M melanoma = tested on: MALME-3M melanoma
HT29 colon = tested on: HT29 colon
SK-MEL-5 melanoma = tested on: SK-MEL-5 melanoma
TK-10 renal = tested on: TK-10 renal
KM12 colon = tested on: KM12 colon
RPMI-8226 leukemia = tested on: RPMI-8226 leukemia
U251 glioblastoma = tested on: U251 glioblastoma
SW-620 colon = tested on: SW-620 colon
IGROV1 ovarian = tested on: IGROV1 ovarian
HS 578T breast = tested on: HS 578T breast
OVCAR-8 ovarian = tested on: OVCAR-8 ovarian
OVCAR-4 ovarian = tested on: OVCAR-4 ovarian
HL-60(TB) leukemia = tested on: HL-60(TB) leukemia
RXF 393 renal = tested on: RXF 393 renal
MCF7 breast = tested on: MCF7 breast
EKVX NSCLC = tested on: EKVX NSCLC
SF-539 CNS = tested on: SF-539 CNS
LOX IMVI melanoma = tested on: LOX IMVI melanoma
SK-MEL-28 melanoma = tested on: SK-MEL-28 melanoma
NCI-H522 lung = tested on: NCI-H522 lung
BT-549 breast = tested on: BT-549 breast

## CCn1cc(-c2ccnc3[nH]c(-c4cccc(CN(C)C)c4)cc23)c(-c2ccc(NC(=O)N(C)C)cc2)n1
UACC-62 melanoma
  GI50: 755 nM
  TGI: 4340 nM
SNB-75 CNS
  GI50: 483 nM
  TGI: 2220 nM
K-562 leukemia
  GI50: 1090 nM
  TGI: 2420 nM
MOLT-4 leukemia
  GI50: < 10 nM
NCI-H226 lung
  GI50: 186 nM
  TGI: 1730 nM
786-0 renal
  GI50: 1450 nM
  TGI: 5230 nM
A498 renal
  GI50: 1180 nM
  TGI: 9520 nM
HCT-15 colon
  GI50: 1940 nM
  TGI: 9960 nM
ACHN renal
  GI50: 2230 nM
  TGI: 10700 nM
HOP-92 NSCLC
  GI50: 449 nM
  TGI: 2720 nM
SN12C renal
  GI50: 344 nM
  TGI: 3800 nM
NCI-H322M lung
  GI50: 3810 nM
  TGI: 15600 nM
MDA-MB-468 breast
  GI50: < 10 nM
M14 melanoma
  GI50: 1270 nM
  TGI: 3940 nM
UACC-257 melanoma
  GI50: 1360 nM
  TGI: 2710 nM
SNB-19 CNS
  GI50: 2410 nM
  TGI: 14200 nM
DU-145 prostate
  GI50: 2710 nM
  TGI: 14600 nM
CAKI-1 renal
  GI50: 246 nM
  TGI: 1940 nM
HOP-62 NSCLC
  GI50: 516 nM
  TGI: 7570 nM
HCT-116 colon
  GI50: 158 nM
  TGI: 1940 nM
SF-295 CNS
  GI50: 1910 nM
  TGI: 10000 nM
PC-3 prostate
  GI50: 1680 nM
  TGI: 7380 nM
UO-31 renal
  GI50: 2670 nM
  TGI: 12000 nM
NCI-H460 NSCLC
  GI50: < 10 nM
  TGI: 1340 nM
T-47D breast
  GI50: 1420 nM
  TGI: 9450 nM
SK-OV-3 ovarian
  GI50: 1010 nM
  TGI: 3410 nM
MDA-MB-435 melanoma
  GI50: 1680 nM
  TGI: 5340 nM
MDA-MB-231 breast
  GI50: 1320 nM
  TGI: 7090 nM
OVCAR-5 ovarian
  GI50: 1680 nM
  TGI: 4910 nM
HCC-2998 colon
  GI50: 1690 nM
  TGI: 4200 nM
SF-268 CNS
  GI50: < 10 nM
  TGI: 192 nM
NCI-H23 lung
  GI50: 403 nM
  TGI: 2290 nM
NCI/ADR-RES ovarian
  GI50: 17600 nM
  TGI: 42400 nM
MALME-3M melanoma
  GI50: 1510 nM
  TGI: 3340 nM
HT29 colon
  GI50: 1000 nM
  TGI: 2310 nM
SK-MEL-5 melanoma
  GI50: 1340 nM
  TGI: 2890 nM
TK-10 renal
  GI50: 2610 nM
  TGI: 11600 nM
KM12 colon
  GI50: 543 nM
  TGI: 2980 nM
RPMI-8226 leukemia
  GI50: < 10 nM
  TGI: 1430 nM
U251 glioblastoma
  GI50: 1350 nM
  TGI: 2830 nM
SW-620 colon
  GI50: 750 nM
  TGI: 2350 nM
IGROV1 ovarian
  GI50: 1530 nM
  TGI: 10400 nM
HS 578T breast
  GI50: 1250 nM
  TGI: 3170 nM
OVCAR-8 ovarian
  GI50: 1620 nM
  TGI: 7510 nM
OVCAR-4 ovarian
  GI50: 2260 nM
  TGI: 13900 nM
HL-60(TB) leukemia
  GI50: < 10 nM
  TGI: 1370 nM
RXF 393 renal
  GI50: 45.4 nM
  TGI: 2740 nM
MCF7 breast
  GI50: 843 nM
  TGI: 7150 nM
EKVX NSCLC
  GI50: 1110 nM
  TGI: 4860 nM
SF-539 CNS
  GI50: 327 nM
  TGI: 2040 nM
LOX IMVI melanoma
  GI50: 422 nM
  TGI: 1920 nM
SK-MEL-28 melanoma
  GI50: 1700 nM
  TGI: 4760 nM
NCI-H522 lung
  GI50: 115 nM
  TGI: 1540 nM
BT-549 breast
  GI50: 293 nM
  TGI: 1770 nM
